In paper PMC7046733, “Plantaricin NC8 αβ exerts potent antimicrobial activity against Staphylococcus spp. and enhances the effects of antibiotics” (Scientific Reports, 2020):
Where two headings read alike, the source gives them in different places. Residues, ends and D or L forms follow the SMILES beside them.

Legend:
S. epidermidis 154 = assay: Broth microdilution MIC/MBC; assay type: cell-based
Protocol: (§1) The broth microdilution method was used to determine minimal inhibitory concentration (MIC) and minimal bactericidal concentration (MBC). Briefly, two-fold serial dilutions of the peptides were used and the final concentrations ranged between 0.097–50 µM. The final concentrations of the antibiotics vancomycin and teicoplanin ranged between 0.097–50 µg/ml, while rifampicin ranged between 0.0019–1 µg/ml and gentamicin 0.0097–5 µg/ml. The inhibitory and bactericidal effects of peptides together with antibiotics were studied by using the same concentration series of antibiotics with constant, sub-MIC concentrations, of the peptides in all the wells (see figure legends). The plates were then incubated at 37 °C for 20 h. […] MBC was determined as the lowest concentration where no growth of bacterial colonies (10 µl) was observed on blood-agar plates. All experiments were repeated at least three times. The combined effect of teicoplanin and PLNC8 αβ against S. epidermidis ATCC 12228 was evaluated by the microdilution checkerboard method. Briefly, two-fold serial dilutions of the antibiotics and PLNC8 αβ were prepared together in microtiter plates, either alone or in combination. The MIC values were determined visually and spectroscopically, and the fractional inhibitory concentration (ΣFIC) was calculated by the equation (MIC of PLNC8 αβ in combination/MIC of PLNC8 αβ alone) + (MIC of antibiotic in combination/MIC of antibiotic alone). Synergy was defined as ΣFIC ≤ 0.5, additive when 0.5 <ΣFIC ≤1, indifferent when 1 <ΣFIC <2 and antagonistic when ΣFIC ≥ 2.

[1] = system: S. epidermidis ATCC 12228; assay: microbe, parasite or virus in culture
Protocol: as §1

Trypsin = assay: Proteolytic degradation; assay type: in vitro ADME; conditions: peptide 100 µM, trypsin 0.125 mg/ml (~5 µM), ammonium bicarbonate buffer 50 mM pH 8.5, 16 h, 37 °C, MALDI-ToF MS
Text: Samples were resuspended in MQ-water containing 0.1% TFA, desalted using ZipTip-C18 columns (Millipore) and analyzed using MALDI-ToF with α-cyano-4-hydroxycinnamic acid as matrix.

[2] = system: S. aureus CCUG 35601 (MRSA); assay: Broth microdilution MIC/MBC; assay type: cell-based
Protocol: as §1, with “legends).” for “legends). The plates were then incubated at 37 °C for 20 h.”

[3] = system: S. epidermidis 157 (hGISE); assay: Broth microdilution MIC/MBC; assay type: cell-based
Protocol: as §1, with “legends).” for “legends). The plates were then incubated at 37 °C for 20 h.”

[4] = system: S. epidermidis 126 (hGISE); assay: Broth microdilution MIC/MBC; assay type: cell-based
Protocol: as §1, with “legends).” for “legends). The plates were then incubated at 37 °C for 20 h.”

human erythrocytes = assay: Haemolysis; assay type: cell-based; conditions: isolated human erythrocytes, 1 h, 37 °C, n=3
Protocol: The haemolytic activity of the peptides was investigated by collecting blood from healthy volunteers in heparinized vacutainers. Briefly, the blood was centrifuged at 600 × g for 5 min and the erythrocyte pellet was washed three times in PBS. The cells were then suspended in PBS and added to 96-well plates (15% erythrocyte suspension/well), containing the peptides with two-fold serial dilution. The plates were incubated for 1 h at 37 °C followed by centrifugation for 5 min at 900 × g and measurement of the supernatants at 540 nm. Haemolytic activity (%) was calculated by subtracting the negative control from all values and normalization against the positive control (0.5% Triton X-100), that was set to 100%. All experiments, each in duplicate, were repeated three times.

[5] = Staphylococcus epidermidis, 154, 20 h, antibiotic alone, 20 h, read-out: MBC
[6] = Staphylococcus epidermidis, ATCC12228, 20 h
[7] = Staphylococcus epidermidis, 24 h
[8] = Staphylococcus epidermidis, 154, 20 h
[9] = MRSA, antibiotic alone, after 24 h
[10] = S. epidermidis 157, antibiotic alone, after 24 h
[11] = S. epidermidis 126, antibiotic alone, after 24 h
[12] = antibiotic alone, broth microdilution, 37 °C, 20 h

Q: How did the MBC (S. epidermidis 154; [5]) turn out when `CNC(C)C1CCC(N)C(OC2C(N)CC(N)C(OC3OCC(C)(O)C(NC)C3O)C2O)O1` (stereo not drawn) [Gentamicin, gentamicin] was run?
A: > 100 µg/mL

Q: And the MIC (S. epidermidis 154; Staphylococcus epidermidis, 154, 20 h, antibiotic alone, 20 h, read-out: MIC)?
A: > 100 µg/mL

Q: What about the MBC [1, 6] of the same compound?
A: 0.31 µg/mL

Q: What about the MIC [1, 6] of the same compound?
A: 0.31 µg/mL

Q: For `CC(C)C[C@H](NC(=O)[C@H](Cc1ccc(O)cc1)NC(=O)[C@H](Cc1ccc(O)cc1)NC(=O)CNC(=O)[C@H](Cc1c[nH]c2ccccc12)NC(=O)[C@H](CO)NC(=O)[C@H](CO)NC(=O)[C@H](Cc1c[nH]c2ccccc12)NC(=O)[C@H](CC(C)C)NC(=O)[C@H](CCCCN)NC(=O)[C@@H](NC(=O)[C@@H](NC(=O)[C@H](CC(C)C)NC(=O)[C@@H](N)CC(=O)O)[C@@H](C)O)[C@@H](C)O)C(=O)NCC(=O)N[C@@H](CCCCN)C(=O)N[C@@H](CCCCN)C(=O)N[C@@H](C)C(=O)N[C@@H](CCCNC(=N)N)C(=O)N[C@@H](Cc1c[nH]c2ccccc12)C(=O)N[C@@H](CC(N)=O)C(=O)N[C@@H](CC(C)C)C(=O)N[C@@H](CCCCN)C(=O)N[C@@H](Cc1c[nH]cn1)C(=O)N1CCC[C@H]1C(=O)N[C@@H](Cc1ccc(O)cc1)C(=O)N[C@H](C(=O)N[C@@H](CCC(N)=O)C(=O)N[C@@H](Cc1ccccc1)C(=O)O)C(C)C` [L-PLNC8 α] (H-DLTTKLWSSWGYYLGKKARWNLKHPYVQF-OH), which degradation by trypsin (Trypsin) is on record?
A: efficiently degraded by trypsin

Q: Which MBC (S. epidermidis 154; [5]) does the source give for `CO[C@H]1/C=C/O[C@@]2(C)Oc3c(C)c(O)c4c(O)c(c(/C=N/N5CCN(C)CC5)c(O)c4c3C2=O)NC(=O)/C(C)=C\C=C\[C@H](C)[C@H](O)[C@@H](C)[C@@H](O)[C@@H](C)[C@H](OC(C)=O)[C@@H]1C` [Rifampicin, rifampicin] here?
A: 0.05 µg/mL

Q: What about the MBC (S. epidermidis 154; antibiotic alone, 20 h) of the same compound?
A: 0.063 µg/mL

Q: And the MBC [1, 6]?
A: 0.063 µg/mL

Q: What about the MIC [1, 6] of the same compound?
A: 0.063 µg/mL

Q: For `CN[C@H](CC(C)C)C(=O)N[C@H]1C(=O)N[C@@H](CC(N)=O)C(=O)N[C@H]2C(=O)N[C@H]3C(=O)N[C@H](C(=O)N[C@H](C(=O)O)c4cc(O)cc(O)c4-c4cc3ccc4O)[C@H](O)c3ccc(c(Cl)c3)Oc3cc2cc(c3O[C@@H]2O[C@H](CO)[C@@H](O)[C@H](O)[C@H]2O[C@H]2C[C@](C)(N)[C@H](O)[C@H](C)O2)Oc2ccc(cc2Cl)[C@H]1O` [Vancomycin, vancomycin], which MBC ([2]; Staphylococcus aureus, 24 h) is on record?
A: 3.1 µg/mL

Q: What about the MBC [3, 7] of the same compound?
A: 6.25 µg/mL

Q: And the MIC [3, 7]?
A: 6.25 µg/mL

Q: What about the MBC [4, 7] of the same compound?
A: 3.1 µg/mL

Q: And the MIC [4, 7]?
A: 3.1 µg/mL

Q: And the MBC (S. epidermidis 154; [8])?
A: 3.1 µg/mL

Q: What about the MIC (S. epidermidis 154; [8]) of the same compound?
A: 1.5 µg/mL

Q: And the MBC [1, 6]?
A: 3.1 µg/mL

Q: What about the MIC [1, 6] of the same compound?
A: 1.5 µg/mL

Q: How did the “cytotoxic at relevant concentrations (<50 µM), determined by haemolytic activity” value (“cytotoxic at relevant concentrations” below) (human erythrocytes) turn out when `CC(C)C[C@H](NC(=O)[C@H](Cc1ccc(O)cc1)NC(=O)[C@H](Cc1ccc(O)cc1)NC(=O)CNC(=O)[C@H](Cc1c[nH]c2ccccc12)NC(=O)[C@H](CO)NC(=O)[C@H](CO)NC(=O)[C@H](Cc1c[nH]c2ccccc12)NC(=O)[C@H](CC(C)C)NC(=O)[C@H](CCCCN)NC(=O)[C@@H](NC(=O)[C@@H](NC(=O)[C@H](CC(C)C)NC(=O)[C@@H](N)CC(=O)O)[C@@H](C)O)[C@@H](C)O)C(=O)NCC(=O)O` [α1-15] (H-DLTTKLWSSWGYYLG-OH) was run?
A: nor the truncated α1–22, α1–15, β7–34, β7–20 and β1–20 were cytotoxic

Q: For `CC(C)C[C@H](NC(=O)[C@H](CC(N)=O)NC(=O)[C@H](Cc1c[nH]c2ccccc12)NC(=O)[C@H](CCCNC(=N)N)NC(=O)[C@H](C)NC(=O)[C@H](CCCCN)NC(=O)[C@H](CCCCN)NC(=O)CNC(=O)[C@H](CC(C)C)NC(=O)[C@H](Cc1ccc(O)cc1)NC(=O)[C@H](Cc1ccc(O)cc1)NC(=O)CNC(=O)[C@H](Cc1c[nH]c2ccccc12)NC(=O)[C@H](CO)NC(=O)[C@H](CO)NC(=O)[C@H](Cc1c[nH]c2ccccc12)NC(=O)[C@H](CC(C)C)NC(=O)[C@H](CCCCN)NC(=O)[C@@H](NC(=O)[C@@H](NC(=O)[C@H](CC(C)C)NC(=O)[C@@H](N)CC(=O)O)[C@@H](C)O)[C@@H](C)O)C(=O)O` [α1-22] (H-DLTTKLWSSWGYYLGKKARWNL-OH), which “cytotoxic at relevant concentrations” value (human erythrocytes) is on record?
A: nor the truncated α1–22, α1–15, β7–34, β7–20 and β1–20 were cytotoxic

Q: With `CC[C@H](C)[C@H](NC(=O)CNC(=O)[C@H](CC(C)C)NC(=O)[C@@H](NC(=O)[C@H](Cc1ccc(O)cc1)NC(=O)[C@@H](NC(=O)[C@H](CO)NC(=O)[C@@H](NC(=O)[C@@H]1CCCN1C(=O)[C@@H](NC(=O)[C@@H](N)CO)C(C)C)[C@@H](C)O)C(C)C)[C@@H](C)O)C(=O)N[C@@H](CCCCN)C(=O)N[C@H](C(=O)N[C@@H](CC(C)C)C(=O)N[C@@H](Cc1c[nH]c2ccccc12)C(=O)N[C@@H](CO)C(=O)N[C@@H](C)C(=O)N[C@@H](Cc1ccc(O)cc1)C(=O)N[C@@H](CCCCN)C(=O)N[C@@H](Cc1c[nH]cn1)C(=O)O)[C@@H](C)CC` [β1-20] (H-SVPTSVYTLGIKILWSAYKH-OH) as the compound, how does the “cytotoxic at relevant concentrations” value (human erythrocytes) read?
A: nor the truncated α1–22, α1–15, β7–34, β7–20 and β1–20 were cytotoxic

Q: How did the “cytotoxic at relevant concentrations” value (human erythrocytes) turn out when `CC[C@H](C)[C@H](NC(=O)CNC(=O)[C@H](CC(C)C)NC(=O)[C@@H](NC(=O)[C@@H](N)Cc1ccc(O)cc1)[C@@H](C)O)C(=O)N[C@@H](CCCCN)C(=O)N[C@H](C(=O)N[C@@H](CC(C)C)C(=O)N[C@@H](Cc1c[nH]c2ccccc12)C(=O)N[C@@H](CO)C(=O)N[C@@H](C)C(=O)N[C@@H](Cc1ccc(O)cc1)C(=O)N[C@@H](CCCCN)C(=O)N[C@@H](Cc1c[nH]cn1)C(=O)O)[C@@H](C)CC` [β7-20] (H-YTLGIKILWSAYKH-OH) was run?
A: nor the truncated α1–22, α1–15, β7–34, β7–20 and β1–20 were cytotoxic

Q: `CC[C@H](C)[C@H](NC(=O)CNC(=O)[C@H](CC(C)C)NC(=O)[C@@H](NC(=O)[C@@H](N)Cc1ccc(O)cc1)[C@@H](C)O)C(=O)N[C@@H](CCCCN)C(=O)N[C@H](C(=O)N[C@@H](CC(C)C)C(=O)N[C@@H](Cc1c[nH]c2ccccc12)C(=O)N[C@@H](CO)C(=O)N[C@@H](C)C(=O)N[C@@H](Cc1ccc(O)cc1)C(=O)N[C@@H](CCCCN)C(=O)N[C@@H](Cc1c[nH]cn1)C(=O)N[C@@H](CCCNC(=N)N)C(=O)N[C@@H](CCCCN)C(=O)N[C@H](C(=O)N[C@H](C(=O)N[C@@H](CCC(=O)O)C(=O)N[C@@H](CCCCN)C(=O)N[C@@H](CO)C(=O)N[C@@H](Cc1ccccc1)C(=O)N[C@@H](CC(N)=O)C(=O)N[C@@H](CCCCN)C(=O)NCC(=O)N[C@@H](Cc1ccccc1)C(=O)N[C@@H](Cc1ccc(O)cc1)C(=O)N[C@@H](Cc1c[nH]cn1)C(=O)O)[C@@H](C)CC)[C@@H](C)O)[C@@H](C)CC` [β7-34] (H-YTLGIKILWSAYKHRKTIEKSFNKGFYH-OH) was tested. Which “cytotoxic at relevant concentrations” value (human erythrocytes) did it give?
A: nor the truncated α1–22, α1–15, β7–34, β7–20 and β1–20 were cytotoxic

Q: teicoplanin was tested. Which MBC [2, 9] did it give?
A: 3.1 µg/mL

Q: What about the MIC [2, 9] of the same compound?
A: 0.78 µg/mL

Q: What about the MBC [3, 10] of the same compound?
A: 25 µg/mL

Q: What about the MIC [3, 10] of the same compound?
A: 12.5 µg/mL

Q: What about the MBC [4, 11] of the same compound?
A: 6.25 µg/mL

Q: What about the MIC [4, 11] of the same compound?
A: 3.1 µg/mL

Q: And the MBC (S. epidermidis 154; antibiotic alone, 20 h)?
A: 1.5 µg/mL

Q: What about the MIC (S. epidermidis 154; antibiotic alone, 20 h) of the same compound?
A: 1.5 µg/mL

Q: What about the MBC [1, 12] of the same compound?
A: 1.5 µg/mL

Q: And the MIC [1, 12]?
A: 1.5 µg/mL
